{"source": "paper PMC5340040", "about": "(BMC Biochemistry, 2017)", "key": {"MgF-actin [1]": {"target": "T1, MgF-actin (Oryctolagus cuniculus, UniProt P68135)", "T1 construct": "MgF-actin was polymerized from CaATP-G-actin by 30 min incubation with 2 mM MgCl2 at 22 °C; tissue Pel-Freez Biologicals (Rogers, AR) (acetone powder); host or cells: rabbit back and leg skeletal muscle", "assay": "Extent of F-actin bundling by low speed centrifugation", "type": "biochemical, rabbit", "method": "CaATP-G-actin was stored in a buffer containing 5 mM TrisHCl, 0.2 mM CaCl2, 0.2 mM ATP, 0.5 mM β-mercaptoethanol, pH 8.0 (CaATP-G-buffer). MgF-actin was polymerized from CaATP-G-actin by 30 min incubation with 2 mM MgCl2 at 22 °C. MgF-actin was diluted for further treatments in MgF-buffer containing 5 mM 3-(N-morpholino) propanesulfonic acid (MOPS), 2 mM MgCl2, 0.2 mM ATP and 0.5 mM DTT, pH 7.4. The concentration of G- and F-actin was determined using the extinction coefficient E^1% 290 = 11.5 cm-^1. (The optical density of actin was measured in the presence of 0.5 M NaOH, which shifts the maximum of absorbance from 280 to 290 nm).\nExtent of actin polymerization and bundling was measured by high speed centrifugation at 129,151 x g for 2 h and by low speed centrifugation at 20,800 x g for 8 min, respectively. The centrifugations were carried out at 4 °C. The supernatants were separated by 12% sodium dodecyl sulfate polyacrylamide electrophoresis (SDS−PAGE) and analyzed by densitometry using the TINA 2.07d software.\nBundling was carried out at low ionic strength. a and b bundling kinetics of 4 μM F-actin was followed by light scattering change as described in Methods. […] Upper panels quantitative evaluation of bundling, lower panels, representative SDS-PAGE of the supernatants\nEffect of pH on bundling. […]"}, "actin": {"system": "actin", "conditions": "cited from earlier work", "text": "Actin is a negatively charged structural protein and the most abundant protein in the eukaryotic cells. Actin, released from dead cells, is also present in the saliva. Actin has important roles in cytoskeleton formation, cell division, motility, adhesion, signaling and more. Actin exists in either monomer globular (G) or polymer filament (F) form, which are interconvertible into each other."}, "MgF-actin [2]": {"target": "T1, MgF-actin", "assay": "Transglutaminase cross-linking to F-actin", "type": "binding, rabbit", "conditions": "22 °C; for effect of phalloidin on extent of F-actin cross-linking: 4 μM F-actin, 8 μM Fl-peptide, 8 μM phalloidin, 0.3 mg/ml TGase, 30 min", "text": "Lower panels are representative SDS-PAGE-s. […] Lower panel, SDS-PAGE visualized by fluorescence\nUpper panel, quantitative evaluation of SDS-PAGE by densitometry. Lower panel Coomassie blue stained representative SDS-PAGE"}, "G-actin [3]": {"system": "G-actin", "assay": "Inhibition of TGase cross-linking to G-actin by NaCl, DNase1 and cofilin", "type": "binding, rabbit", "conditions": "6 μM Fl-histatin, 4 μM G-actin; for effect of NaCl on cross-linking to G-actin: 0.3 mg/ml TGase, 1 min", "protocol": "Here we studied the effect of these agents on the cross-link formation between G-actin and histatins. In these experiments NaCl, histatins, TGase were added simultaneously to G-actin and incubated for 1 min only to avoid significant actin polymerization.\nSamples were treated with TGase for 1 min. Upper panel, evaluation of SDS-PAGE. Lower panel, representative SDS-PAGE visualized by Coomassie blue. b Inhibition of cross-linking by DNase1 and cofilin. Samples were treated with TGase for 5 min"}, "TG-G-actin [4]": {"system": "TG-G-actin", "assay": "Cross-linking to TGase pretreated G-actin (TG-G-actin) vs G-actin; cross-linking site", "type": "binding, rabbit", "conditions": "4.5 μM Fl-histatin; for cross-linked product with TGase pretreated vs untreated G-actin: 4 μM G-actin or TG-G-actin, 0.3 mg/ml TGase, 30 min, 22 °C; for cross-linking site in the D-loop of G-actin: TG-G-actin (Gln41 blocked)", "protocol": "Preparation of TG-G-actin: 108 μM CaATP-G-actin was incubated with 4 mg/ml TGase at 4 °C for 24 h. After cross-linking samples were run on SDS-PAGE and evaluated by densitometry. Upper panel quantitative evaluation of SDS-PAGE by densitometry. Lower panel representative SDS-PAGE visualized by Coomassie blue"}, "[5]": {"system": "subtilisin / trypsin digested G-actin", "assay": "Cross-linking to subtilisin or trypsin fragments of G-actin", "type": "binding, rabbit", "conditions": "4 μM G-actin, 6 μM Fl-histatin, 0.3 mg/ml TGase, 30 min, 22 °C; for cross-linking to subtilisin fragments (Asp1-Met47 N-terminal, Gly48-Phe375 C-terminal): 1.5 μg/ml subtilisin; for cross-linking to Tyr69-Arg372 C-terminal tryptic fragment: 20 μg/ml trypsin", "protocol": "Trypsin and subtilisin digestions were stopped by 40 μg/ml STI and 1 mM PMSF, respectively. Samples were run on SDS-PAGE. Left, lanes visualized by Coomassie blue; right, lanes visualized by fluorescence, marked by (*). Legend: (a) actin; (b) trypsin digested actin; (c) trypsin digested actin cross-linked with Fl-histatin-3 or Fl-histatin-5; (d) subtilisin digested actin; (e) subtilisin digested actin cross-linked with Fl-histatin-3 or Fl-histatin-5; nf), actin cross-linked with Fl-histatin-3 or Fl-histatin-5. a Fl-histatin-3-actin fragments cross-linked bands; b Fl-histatin-5-actin fragments cross-linked bands. Lane M, molecular weight marker"}, "CaATP-G-actin [6]": {"system": "CaATP-G-actin", "conditions": "22 °C", "method": "The reaction was stopped by addition of 1 mM cysteamine. Samples were subjected to 12% SDS-PAGE, visualized by Coomassie blue or fluorescence and evaluated by densitometry.\nSamples were treated with TGase at 22 °C for 30 and run on SDS-PAGE and evaluated by densitometry as described in Methods.\nCross-linking with 0.3 mg/ml TGase for 30 min at 22 °C. Upper panel, quantitative evaluation of SDS-PAGE by densitometry."}, "G-actin [7]": {"system": "G-actin", "conditions": "ref [6]; cited from earlier work"}, "F-actin bundles": {"system": "F-actin bundles", "conditions": "ref [9]; cited from earlier work", "text": "Both DNase1 and cofilin are actin binding proteins. DNase1 depolymerizes F-actin filament by binding to the protomer at the filaments ends and forming a tight complex with the protomer by attachment to its DNase1 binding loop (D-loop). […] Cofilin disassembles actin bundles by severing the filaments through its effect on the structure of actin protomers [[19] ..."}, "[8]": {"system": "CaATP-G-actin (skeletal muscle)", "assay": "Actin polymerization, pyrene-actin fluorescence kinetics", "type": "biochemical, rabbit", "conditions": "4 μM CaATP-G-actin; 8 μM histatin-3, 20 μM histatin-5, 7 μM LL-37; pH 6.5, 7.4 and 8.2; 22 °C", "protocol": "Labeling of Mg-F-actin at Cys-374 with pyrene maleimide was carried out according to Kouyama and Mihashi with some modifications. CaATP-G-actin was filtered through a PD-10 column (GE Healthcare) equilibrated with β-mercaptoethanol-free CaATP-G-buffer. After filtration, G-actin (1 mg/ml) was polymerized by 2 mM MgCl2 and 100 mM KCl at 22 °C for 30 min, and reacted with pyrene maleimide (16 μg/ml) on ice, for 1 h. The reaction was terminated with 1 mM DTT. Labeled F-actin was centrifuged at 129,151 x g for 2 h; the pellet was resuspended in Ca-ATP-G-buffer and depolymerized by dialyzing in this buffer for 36 h at 4 °C with twice changing the buffer. Finally, actin was centrifuged again at 129,151 x g for 2 h. […] The concentration of modified actin was determined by the procedure of Bradford using unmodified actin as a standard. The extent of labeling was determined by using pyrene extinction coefficient E344 nm = 22,000 cm^−1M^−1, was ~100%.\nActin polymerization was followed by fluorescence increase (at 365 nm excitation and 386 nm emission wavelengths) of pyrene-labeled G-actin [17], which was added to unlabeled G-actin in 10–15%. The kinetics of bundling of MgF−actin was monitored by increase in light scattering, with both excitation and emission wavelengths adjusted to 450 nm. All fluorescence and light scattering measurements were carried out at 22 °C. […]"}, "CaATP-G-actin [9]": {"system": "CaATP-G-actin", "conditions": "ref [6], cited from earlier work", "text": "Transglutaminase (TGase) catalyzes the formation of isopeptide bonds, which cross-links proximal glutamine and lysine residues in proteins. The TGase reaction produces both intramolecular cross-links in proteins and intermolecular cross-links between proteins and peptides."}, "[10]": {"system": "CaATP-G-actin (skeletal muscle)", "conditions": "ref [9]; cited from earlier work", "protocol": "The pK of histidine is around pH 6.5 depending on the environment of the residue in the protein structure. This means that its charge changes with pH in the neutral pH region. Histidine is positively charged at slightly acidic pH and neutral above pH 7.0. Since actin polymerization is dependent on the number of positive charges of the polymerizing agent, the effect of pH 6.5, 7.4 and 8.2 on the polymerization of G-actin by histatins was measured (Fig. 1d)."}, "TG-G-actin [11]": {"system": "TG-G-actin", "conditions": "ref [6]; cited from earlier work", "text": "TGase catalyzes covalent cross-linking of glutamine and lysine residues in proteins. Since in the histatin-G-actin cross-linking reaction only actin contains glutamine residues, it follows that actin should be the glutamine donor in this case. […] Gln41 seems to be the preferred candidate for this role sinc ..."}, "[12]": {"conditions": "4 μM G- or F-actin, 8 μM histatin-3 or 6 μM LL-37, 0.4 mg/ml TGase"}}, "note": "No end group written: not given here.", "data": [{"compound": "CC(C)C[C@H](NC(=O)[C@H](Cc1ccc(O)cc1)NC(=O)[C@H](CC(N)=O)NC(=O)[C@H](CO)NC(=O)[C@H](CCCNC(=N)N)NC(=O)[C@H](Cc1ccc(O)cc1)NC(=O)CNC(=O)[C@H](CCCNC(=N)N)NC(=O)[C@H](Cc1c[nH]cn1)NC(=O)[C@H](CO)NC(=O)[C@H](Cc1c[nH]cn1)NC(=O)[C@H](Cc1c[nH]cn1)NC(=O)[C@H](CCCCN)NC(=O)[C@H](CCC(=O)O)NC(=O)[C@H](Cc1c[nH]cn1)NC(=O)[C@H](Cc1ccccc1)NC(=O)[C@H](CCCCN)NC(=O)[C@H](CCCNC(=N)N)NC(=O)[C@H](CCCCN)NC(=O)[C@H](Cc1ccc(O)cc1)NC(=O)CNC(=O)[C@H](Cc1c[nH]cn1)NC(=O)[C@H](Cc1c[nH]cn1)NC(=O)[C@H](CCCNC(=N)N)NC(=O)[C@H](CCCCN)NC(=O)[C@H](C)NC(=O)[C@H](Cc1c[nH]cn1)NC(=O)[C@H](CO)NC(=O)[C@@H](N)CC(=O)O)C(=O)N[C@@H](Cc1ccc(O)cc1)C(=O)N[C@@H](CC(=O)O)C(=O)N[C@@H](CC(N)=O)C(=O)O", "note": "[histatin-3]", "values": [{"measurement": "EC50", "setting": "MgF-actin [1]", "value": 5, "unit": "µM"}]}, {"compound": "lysozyme: positively charged protein that interacts with actin", "values": [{"measurement": "polymerization and bundling of actin, lysozyme", "setting": "actin; ref [8]", "value": "polymerize G-actin to F actin and bundle F-actin into actin bundles"}]}, {"compound": "Fl-LL-37: tetramethylrhodamine labeled LL-37", "values": [{"measurement": "effect of phalloidin on extent of F-actin cross-linking", "setting": "MgF-actin [2]", "value": "reduces greatly"}]}, {"compound": "Fl-histatin-5: FAM labeled histatin-5", "values": [{"measurement": "effect of NaCl on cross-linking to G-actin", "setting": "G-actin [3]", "value": "NaCl inhibited the cross-linking"}, {"measurement": "inhibitory effect of cofilin on cross-linking, comparison of peptides", "setting": "G-actin [3]; cofilin, TGase 5 min", "value": "less Fl-histatin-5 than with Fl-histatin-3"}, {"measurement": "cross-linked product with TGase pretreated vs untreated G-actin", "setting": "TG-G-actin [4]", "value": "the same amount of cross-linked product formed"}, {"measurement": "cross-linking site in the D-loop of G-actin", "setting": "TG-G-actin [4]", "value": "does not cross-link to Gln41 of G-actin"}, {"measurement": "cross-linking to subtilisin fragments (Asp1-Met47 N-terminal, Gly48-Phe375 C-terminal)", "setting": "[5]", "value": "cross-linked only to the C- but not to the N-terminal G-actin fragment"}, {"measurement": "cross-linking to Tyr69-Arg372 C-terminal tryptic fragment", "setting": "[5]", "value": "can be also cross-linked"}, {"measurement": "quantity of cross-linked product with G-actin, comparison", "setting": "CaATP-G-actin [6]; 4 μM CaATP-G-actin, 4–8 μM Fl-histatin, 0.3 mg/ml TGase", "value": "consistently greater than that of Fl-histatin-3"}, {"measurement": "extent of cross-linking to both G- and F-actin, comparison", "setting": "CaATP-G-actin [6]; 4 μM G- and F-actin, 6 μM Fl-histatin, 0.3 mg/ml TGase", "value": "larger than that of Fl-histatin-3"}]}, {"compound": "LLGDFFRKSKEKIGKEFKRIVQRIKDFLRNLVPRTES [LL-37]", "values": [{"measurement": "effect of 200 mM NaCl on extent of cross-linking by LL-37", "setting": "G-actin [7]", "value": "did not affect the extent of cross-linking"}, {"measurement": "extent of cross-link formation with F-actin vs G-actin", "setting": "MgF-actin [2]; [12]", "value": "significantly less than with G-actin"}, {"measurement": "effect of pH on extent of F-actin bundling", "setting": "MgF-actin [1]; 8 μM MgF-actin, 5 μM histatin-3, 12 μM histatin-5, 5 μM LL-37, pH 6.5, 7.3 and 8.2 (Fig. 2d), 3–16 μM histatins at pH 6.5 and 7.4 (Fig. S1)", "value": "contrary to the bundling by LL-37"}, {"measurement": "polymerization and bundling of actin, LL-37", "setting": "actin; ref [9]", "value": "polymerize G-actin to F actin and bundle F-actin into actin bundles"}, {"measurement": "disassembly of polycation induced actin bundles by DNase1 and cofilin", "setting": "F-actin bundles", "value": "DNase1 and cofilin disassemble LL-37 and lysozyme -induced actin bundles"}, {"measurement": "effect of pH on kinetics of actin polymerization", "setting": "[8]", "value": "much less pH-dependent than the polymerization by histatins"}, {"measurement": "cross-linking of LL-37 to actin by TGase", "setting": "CaATP-G-actin [9]; [25]", "value": "can be cross-linked to actin by TGase"}, {"measurement": "binding site on actin", "setting": "CaATP-G-actin [9]", "value": "binds preferentially to the D-loop of actin"}, {"measurement": "concentration at which G-actin is polymerized at neutral pH", "setting": "[10]", "value": "at about the same concentration as histatin-3"}, {"measurement": "cross-linking site of LL-37 on actin", "setting": "TG-G-actin [11]", "value": "preferentially cross-linked to Gln-49"}, {"measurement": "cross-linking to G- and F-actin by TGase", "setting": "CaATP-G-actin [6]; [12]", "value": "cross-linked to both G- and F-actin like LL-37"}]}, {"compound": "Fl-histatin-3: tetramethylrhodamine labeled histatin-3 (DSHAKRHHGYKRKFHEKHHSHRGYRSNYLYDN; also: tetramethylrhodamine label, position not given here)", "values": [{"measurement": "effect of NaCl on cross-linking to G-actin", "setting": "G-actin [3]", "value": "NaCl inhibited the cross-linking"}, {"measurement": "effect of phalloidin on extent of F-actin cross-linking", "setting": "MgF-actin [2]", "value": "reduces greatly"}, {"measurement": "cross-linked product with TGase pretreated vs untreated G-actin", "setting": "TG-G-actin [4]", "value": "slightly less actin Fl-histatin-3 cross-linked products formed with TGase pretreated than with untreated G-actin"}, {"measurement": "cross-linking site in the D-loop of G-actin", "setting": "TG-G-actin [4]", "value": "Gln-49 is the main glutamine donor in the D-loop of actin"}, {"measurement": "cross-linking to subtilisin fragments (Asp1-Met47 N-terminal, Gly48-Phe375 C-terminal)", "setting": "[5]", "value": "both fragments can be cross-linked"}, {"measurement": "cross-linking to Tyr69-Arg372 C-terminal tryptic fragment", "setting": "[5]", "value": "can be also cross-linked"}]}]}
